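Tested at 5 concentrations; 48 h exposure; 96-well plates; endpoints linearly interpolated, else capped at highest concentration. Here, GI50 denotes the concentration required for 50% inhibition of growth. TGI denotes the concentration required for complete inhibition of growth.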
Key:
Assay in all cases: NCI anticancer screen, dose series, 48 h
[1] = system: 786-0 renal
[2] = system: A498 renal
[3] = system: A549 NSCLC
[4] = system: ACHN renal
[5] = system: BT-549 breast
[6] = system: CAKI-1 renal
[7] = system: CCRF-CEM leukemia
[8] = system: COLO 205 colon
[9] = system: DU-145 prostate
[10] = system: EKVX NSCLC
[11] = system: HCC-2998 colon
[12] = system: HCT-116 colon
[13] = system: HCT-15 colon
[14] = system: HL-60(TB) leukemia
[15] = system: HOP-62 NSCLC
[16] = system: HOP-92 NSCLC
[17] = system: HS 578T breast
[18] = system: HT29 colon
[19] = system: IGROV1 ovarian
[20] = system: K-562 leukemia
[21] = system: KM12 colon
[22] = system: LOX IMVI melanoma
[23] = system: M14 melanoma
[24] = system: MALME-3M melanoma
[25] = system: MCF7 breast
[26] = system: MDA-MB-231 breast
[27] = system: MDA-MB-435
[28] = system: MOLT-4 leukemia
[29] = system: NCI-H226 lung
[30] = system: NCI-H23 lung
[31] = system: NCI-H460 lung
[32] = system: NCI-H522 lung
[33] = system: NCI/ADR-RES ovarian
[34] = system: OVCAR-3 ovarian
[35] = system: OVCAR-4 ovarian
[36] = system: OVCAR-5 ovarian
[37] = system: OVCAR-8 ovarian
[38] = system: PC-3 prostate
[39] = system: RPMI-8226 leukemia
[40] = system: RXF 393 renal
[41] = system: SF-268 CNS
[42] = system: SF-295 CNS
[43] = system: SF-539 CNS
[44] = system: SK-MEL-2 melanoma
[45] = system: SK-MEL-28 melanoma
[46] = system: SK-MEL-5 melanoma
[47] = system: SK-OV-3 ovarian
[48] = system: SN12C renal
[49] = system: SNB-19 CNS
[50] = system: SNB-75 CNS
[51] = system: SR leukemia
[52] = system: SW-620 colon
[53] = system: T-47D breast
[54] = system: TK-10 renal
[55] = system: U251 CNS
[56] = system: UACC-257 melanoma
[57] = system: UACC-62 melanoma
[58] = system: UO-31 renal

SMILES: O=C(Nc1ccc(-n2ccc3c(NC(=O)c4ccccc4)nccc32)cc1)c1cccc(C(F)(F)F)c1
- GI50 [1]: 0.728 µM
- TGI [1]: 9.14 µM
- GI50 [2]: 0.905 µM
- TGI [2]: 15.6 µM
- GI50 [3]: 0.418 µM
- TGI [3]: 9.4 µM
- GI50 [4]: 0.624 µM
- TGI [4]: 14.7 µM
- GI50 [5]: 2.03 µM
- TGI [5]: 22.3 µM
- GI50 [6]: 0.326 µM
- TGI [6]: 7.92 µM
- GI50 [7]: 0.313 µM
- TGI [7]: 13.2 µM
- GI50 [8]: 1.42 µM
- TGI [8]: 10.3 µM
- GI50 [9]: 1.64 µM
- TGI [9]: 9.71 µM
- GI50 [10]: 4.33 µM
- TGI [10]: > 50 µM
- GI50 [11]: 1.71 µM
- TGI [11]: 11.6 µM
- GI50 [12]: 0.177 µM
- TGI [12]: 6.92 µM
- GI50 [13]: 0.0428 µM
- TGI [13]: 6.99 µM
- GI50 [14]: 0.685 µM
- TGI [14]: 15.3 µM
- GI50 [15]: 2.02 µM
- TGI [15]: 14.5 µM
- GI50 [16]: 1.96 µM
- TGI [16]: > 50 µM
- GI50 [17]: 1.42 µM
- TGI [17]: 13.1 µM
- GI50 [18]: 0.243 µM
- TGI [18]: 4.02 µM
- GI50 [19]: 1.4 µM
- TGI [19]: > 50 µM
- GI50 [20]: 0.231 µM
- TGI [20]: > 23.1 µM
- GI50 [21]: 0.4 µM
- TGI [21]: 7.64 µM
- GI50 [22]: 0.182 µM
- TGI [22]: 5.4 µM
- GI50 [23]: 1.38 µM
- TGI [23]: 9.06 µM
- GI50 [24]: 2.04 µM
- TGI [24]: 12.2 µM
- GI50 [25]: 0.413 µM
- TGI [25]: 7.94 µM
- GI50 [26]: 2.88 µM
- TGI [26]: 14.7 µM
- GI50 [27]: 0.657 µM
- TGI [27]: 4.98 µM
- GI50 [28]: 0.29 µM
- TGI [28]: > 25.9 µM
- GI50 [29]: 2.56 µM
- TGI [29]: > 50 µM
- GI50 [30]: 3.88 µM
- TGI [30]: > 36.1 µM
- GI50 [31]: 0.119 µM
- TGI [31]: 5.38 µM
- GI50 [32]: 1.07 µM
- TGI [32]: > 13.5 µM
- GI50 [33]: 0.724 µM
- TGI [33]: 11.9 µM
- GI50 [34]: 1 µM
- TGI [34]: 7.89 µM
- GI50 [35]: 2.7 µM
- TGI [35]: 22.6 µM
- GI50 [36]: 3.07 µM
- TGI [36]: > 50 µM
- GI50 [37]: 0.393 µM
- TGI [37]: 10.3 µM
- GI50 [38]: 1.29 µM
- TGI [38]: 27.3 µM
- GI50 [39]: 0.614 µM
- TGI [39]: 14.2 µM
- GI50 [40]: 1.02 µM
- TGI [40]: 5.97 µM
- GI50 [41]: 0.473 µM
- TGI [41]: 25.6 µM
- GI50 [42]: 0.392 µM
- TGI [42]: 7.99 µM
- GI50 [43]: 0.47 µM
- TGI [43]: 11.5 µM
- GI50 [44]: 1.29 µM
- TGI [44]: 7.27 µM
- GI50 [45]: 2.4 µM
- TGI [45]: 11 µM
- GI50 [46]: 0.194 µM
- TGI [46]: 6.65 µM
- GI50 [47]: 0.879 µM
- TGI [47]: 15.4 µM
- GI50 [48]: 1.67 µM
- TGI [48]: > 35.6 µM
- GI50 [49]: 0.729 µM
- TGI [49]: 20.1 µM
- GI50 [50]: 0.707 µM
- TGI [50]: 6.59 µM
- GI50 [51]: 0.0753 µM
- TGI [51]: > 18 µM
- GI50 [52]: 0.381 µM
- TGI [52]: 7.32 µM
- GI50 [53]: 4.66 µM
- TGI [53]: 30.9 µM
- GI50 [54]: 1.53 µM
- TGI [54]: 12.6 µM
- GI50 [55]: 0.158 µM
- TGI [55]: 7.09 µM
- GI50 [56]: 2.09 µM
- TGI [56]: > 21.6 µM
- GI50 [57]: 0.714 µM
- TGI [57]: 8.48 µM
- GI50 [58]: 1.83 µM
- TGI [58]: 15.9 µM
